Tested on: MCF7
Assay: Toxicity of NAC-MTN vs CD-MTN and MTN, MTT (Example 9, EX042105)
Format: cell-based, human
Protocol: FIG. 4. […] The relative toxicity of NAC-MTN was compared with MTN and CD-MTN in four cell lines, MCF7(breast cancer), COS7green monkey kidney (SV40 transformed), 3T3 (mouse fibroblast), and BHK21(hamster kidney). Cells were treated with identical amounts of MTN formulated as either NAC-MTN, MTN only, or poly-beta-cyclodextrin-sulfylbutylether(CD-MTN). After an incubation period, cell viability was assayed with MTT assay. The differences in toxicity between NAC-MTN and MTN or NAC-MTN and CD-MTN are shown as % difference. Greater percentage difference correlates to more reduction in relative NAC-MTN toxicity.
MCF7, COS7, 3T3, and BHK21 cells were plated out in duplicate rows of equivalent cell density in 100ul final volume. Initial cell densities were 2000 cells/well.
Preparing NAC-MTN, CD-MTN, and MTN only. Combined 180 ul of 0.05 mg/ml MTN with […] 0.1 mg/ml herring sperm genomic DNA (HSGDNA, Promega), 1500 ul of 2× DMEM media containing 20% FBS to give 3.0 ml final volume and 12% final drug loading in the dsDNA. For MTN only, 180 ul of MTN was combined with 1320 ul H2O and 1500 ul 2× DMEM. […]
Aspirated media in plate and replaced with 50 ul of 0.5 mg/ml MTT in 1× media, incubated 3 hours, aspirated, air dried 5 min and dissolved in 100 ul of isopropyl, read OD at A570. […]

## O=C1c2c(O)ccc(O)c2C(=O)c2c(NCCNCCO)ccc(NCCNCCO)c21 [MTN, mitoxantrone]
2 uM final MTN, MTT 48 hours after adding samples
  % tox. relative to media only: 48.39%
After 24 hours, 2 uM MTN
  toxic effect: no toxic effect

From US20070225213A1, “Nucleic acid carriers for delivery of therapeutic agents” (priority 2006, published 2007)
